The record followed here is ChEMBL document CHEMBL6071121, “Synthetic approaches and clinical application of small-molecule inhibitors of sodium-dependent glucose transporters 2 for the treatment of type 2 diabetes mellitus” (Eur J Med Chem, 2024).

For test [1], the target named is T1, Sodium/glucose cotransporter 2 (Mus musculus) (UniProt Q923I7).
T1 sequence (whole entry): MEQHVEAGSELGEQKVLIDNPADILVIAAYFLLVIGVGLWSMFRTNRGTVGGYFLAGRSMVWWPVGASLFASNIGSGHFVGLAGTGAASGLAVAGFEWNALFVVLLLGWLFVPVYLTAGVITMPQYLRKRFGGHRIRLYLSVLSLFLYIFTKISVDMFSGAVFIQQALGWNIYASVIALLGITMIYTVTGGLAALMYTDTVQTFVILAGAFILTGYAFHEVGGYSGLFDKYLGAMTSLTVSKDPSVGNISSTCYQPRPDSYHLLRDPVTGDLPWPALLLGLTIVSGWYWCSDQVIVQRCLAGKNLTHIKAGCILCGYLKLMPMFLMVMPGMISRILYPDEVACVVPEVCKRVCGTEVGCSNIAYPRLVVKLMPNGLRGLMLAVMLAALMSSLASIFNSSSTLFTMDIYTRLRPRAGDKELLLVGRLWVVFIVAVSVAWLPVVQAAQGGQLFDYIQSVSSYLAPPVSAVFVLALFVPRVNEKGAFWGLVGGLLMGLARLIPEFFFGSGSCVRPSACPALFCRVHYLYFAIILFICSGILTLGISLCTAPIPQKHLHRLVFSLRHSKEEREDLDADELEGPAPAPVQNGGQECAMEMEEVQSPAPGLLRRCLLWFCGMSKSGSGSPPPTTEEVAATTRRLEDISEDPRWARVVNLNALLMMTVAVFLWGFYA
Briefly: In vivo inhibition of SGLT2-mediated reduction in urinary glucose excretion in mouse administered orally. The test is classed as functional, organism-based. The following applies: route po.

In test [2] the target is T2, Sodium/glucose cotransporter 2 (Rattus norvegicus) (UniProt P53792).
T2 sequence (whole entry): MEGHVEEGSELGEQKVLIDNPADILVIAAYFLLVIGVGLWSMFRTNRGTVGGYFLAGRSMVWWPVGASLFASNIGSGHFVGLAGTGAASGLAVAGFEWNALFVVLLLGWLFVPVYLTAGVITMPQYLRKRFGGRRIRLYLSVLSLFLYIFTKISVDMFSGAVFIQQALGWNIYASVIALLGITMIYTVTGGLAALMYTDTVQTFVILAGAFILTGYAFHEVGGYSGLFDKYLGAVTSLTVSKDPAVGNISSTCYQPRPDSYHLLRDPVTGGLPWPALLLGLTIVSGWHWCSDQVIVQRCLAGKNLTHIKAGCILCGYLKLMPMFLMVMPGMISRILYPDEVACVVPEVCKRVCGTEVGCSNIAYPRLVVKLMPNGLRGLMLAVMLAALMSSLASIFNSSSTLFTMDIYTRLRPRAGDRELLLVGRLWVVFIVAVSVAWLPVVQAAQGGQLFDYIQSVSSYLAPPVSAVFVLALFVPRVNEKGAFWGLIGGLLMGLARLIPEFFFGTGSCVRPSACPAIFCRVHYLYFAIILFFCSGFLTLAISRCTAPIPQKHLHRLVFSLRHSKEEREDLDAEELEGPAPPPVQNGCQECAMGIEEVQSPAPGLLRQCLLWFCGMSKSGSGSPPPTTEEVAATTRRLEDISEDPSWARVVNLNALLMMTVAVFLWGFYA
Briefly: In vivo inhibition of SGLT2-mediated reduction in urinary glucose excretion in rat administered orally. It is filed as functional, organism-based. The conditions noted are these: route po.

The target of test [3] is T1, Sodium/glucose cotransporter 2 (Mus musculus). The test can be described thus: In vivo inhibition of SGLT2-mediated increase in blood glucose level in mouse administered intraperitoneally. The test is classed as functional, organism-based. The conditions noted are these: route ip.
Test [4] has the same target. Briefly: In vivo inhibition of SGLT2-mediated increase in blood glucose level in mouse administered orally. The following applies: route po. It is filed as functional, organism-based.
In test [5] the target is T3, Sodium/glucose cotransporter 1 (Homo sapiens, UniProt P13866).
T3 sequence (P13866 whole entry): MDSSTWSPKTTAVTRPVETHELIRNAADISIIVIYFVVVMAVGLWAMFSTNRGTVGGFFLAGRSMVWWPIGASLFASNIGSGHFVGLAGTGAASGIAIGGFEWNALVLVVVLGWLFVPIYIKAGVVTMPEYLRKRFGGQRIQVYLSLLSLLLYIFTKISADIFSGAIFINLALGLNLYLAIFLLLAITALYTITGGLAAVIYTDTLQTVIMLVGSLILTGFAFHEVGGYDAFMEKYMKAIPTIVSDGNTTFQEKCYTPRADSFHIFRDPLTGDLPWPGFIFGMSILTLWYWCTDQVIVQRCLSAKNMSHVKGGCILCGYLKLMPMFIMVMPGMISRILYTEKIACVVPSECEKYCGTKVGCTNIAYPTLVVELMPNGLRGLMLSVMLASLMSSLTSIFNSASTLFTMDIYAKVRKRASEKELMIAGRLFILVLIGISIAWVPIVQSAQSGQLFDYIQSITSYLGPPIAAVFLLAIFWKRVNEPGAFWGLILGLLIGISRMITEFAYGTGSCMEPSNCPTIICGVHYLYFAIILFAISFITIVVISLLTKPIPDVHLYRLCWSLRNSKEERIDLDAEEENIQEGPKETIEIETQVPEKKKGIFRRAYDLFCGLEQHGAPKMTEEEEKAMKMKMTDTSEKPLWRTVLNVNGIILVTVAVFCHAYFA
Briefly: Inhibition of SGLT1 (unknown origin).

Test [6] deals with T4, Sodium/glucose cotransporter 2 (Homo sapiens, UniProt P31639).
T4 sequence (P31639 whole entry): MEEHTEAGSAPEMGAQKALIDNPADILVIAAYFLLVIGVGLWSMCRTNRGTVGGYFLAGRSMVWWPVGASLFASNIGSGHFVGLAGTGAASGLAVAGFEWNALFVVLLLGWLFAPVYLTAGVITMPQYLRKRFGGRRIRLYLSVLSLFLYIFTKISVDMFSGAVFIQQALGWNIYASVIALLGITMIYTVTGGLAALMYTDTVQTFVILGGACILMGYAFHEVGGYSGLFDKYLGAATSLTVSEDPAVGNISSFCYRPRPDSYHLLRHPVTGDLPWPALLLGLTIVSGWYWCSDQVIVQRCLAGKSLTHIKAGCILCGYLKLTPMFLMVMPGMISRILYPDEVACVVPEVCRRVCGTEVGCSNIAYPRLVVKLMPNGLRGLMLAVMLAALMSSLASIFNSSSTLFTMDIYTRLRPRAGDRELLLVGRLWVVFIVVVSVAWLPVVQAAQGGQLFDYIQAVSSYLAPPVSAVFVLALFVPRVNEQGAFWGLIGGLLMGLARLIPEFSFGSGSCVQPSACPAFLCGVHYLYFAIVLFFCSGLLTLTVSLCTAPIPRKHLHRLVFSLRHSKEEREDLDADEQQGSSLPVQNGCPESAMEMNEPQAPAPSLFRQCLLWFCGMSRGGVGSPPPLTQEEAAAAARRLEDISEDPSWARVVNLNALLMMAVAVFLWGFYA
The test can be described thus: Inhibition of human SGLT2 expressed in HEK293 cells using 14C-AMG as substrate preincubated for 15 mins followed by substrate addition measured after 2 hrs by liquid scintillation counter analysis. It is filed as cell-based.

The target of test [7] is T3, Sodium/glucose cotransporter 1. The test can be described thus: Inhibition of human SGLT1 expressed in HEK293 cells using 14C-AMG as substrate preincubated for 15 mins followed by substrate addition measured after 2 hrs by liquid scintillation counter analysis. The test is classed as cell-based.
Test [8] addresses T4, Sodium/glucose cotransporter 2. The test can be described thus: Inhibition of human SGLT2.
The target in test [9] is T5, Sodium/glucose cotransporter 2 (Rattus norvegicus, UniProt P53792).
T5 sequence (P53792 whole entry): T2 sequence (whole entry)
Briefly: Inhibition of rat SGLT2.

For test [10], the target named is T6, Sodium/glucose cotransporter 2 (Mus musculus, UniProt Q923I7).
T6 sequence (Q923I7 whole entry): T1 sequence (whole entry)
The test can be described thus: Inhibition of mouse SGLT2.

For `COc1ccc(Cc2sccc2O[C@@H]2O[C@H](CO)[C@@H](O)[C@H](O)[C@H]2O)cc1` [ATIGLIFLOZIN], the ID30 in [1] amounted to 79 mg/kg; in [2], 39.8 mg/kg. The ID50 in [3] came out at 13.2 mg/kg; in test [4], 26.1 mg/kg. In test [5], this compound came in with an IC50 of over 10000 nM.

As for `CCOc1ccc(Cc2cc([C@@]34OC[C@@](CO)(O3)[C@@H](O)[C@H](O)[C@H]4O)ccc2Cl)cc1F` [HENAGLIFLOZIN], the 50% inhibitory concentration (IC50) in test [6] came to 2.38 nM; in test [7], 4320 nM.

In the case of `CCOC(=O)OC[C@H]1O[C@@H](Oc2nn(C(C)C)c(C)c2Cc2ccc(OC(C)C)cc2)[C@H](O)[C@@H](O)[C@@H]1O` [REMOGLIFLOZIN ETABONATE], the Ki in [8] came out at 1950 nM; in test [9], 2140 nM.

As to `CCc1ccc(Cc2ccc3c(c2)[C@]2(OC3)O[C@H](CO)[C@@H](O)[C@H](O)[C@H]2O)cc1` [TOFOGLIFLOZIN], the Ki in test [8] came to 2.9 nM; in test [9] it was 14.9 nM; in [10] it was 6.4 nM.

As usually defined, the IC50 is the point on the concentration scale where inhibition reaches its midpoint. As usually defined, the Ki is a measure of affinity in units of concentration, obtained from inhibition or displacement.
